# Laboratory results from ChEMBL document CHEMBL3826919, “The discovery of novel and selective fatty acid binding protein 4 inhibitors by virtual screening and biological evaluation” (Bioorg Med Chem, 2016).
# Tests used:
# [1] = biological target: T1, Fatty acid-binding protein, adipocyte (Mus musculus) (UniProt P04117); assay: Inhibition of FABP4 in mouse RAW264.7 cells assessed as inhibition of LPS-induced IL-6 expression after 24 hrs by qPCR method; type: cell-based
# T1 sequence (whole entry): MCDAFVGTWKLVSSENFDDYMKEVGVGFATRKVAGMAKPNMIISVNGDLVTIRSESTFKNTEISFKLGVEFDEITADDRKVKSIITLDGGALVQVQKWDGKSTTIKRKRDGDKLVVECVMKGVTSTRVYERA
# [2] = biological target: T2, Fatty acid-binding protein, adipocyte (Homo sapiens, UniProt P15090); assay: Binding affinity to His6-tagged FABP4 (unknown origin) expressed in Escherichia coli BL21(DE3) cells assessed as change in melting temperature at 50 uM after 30 mins by SYPRO orange dye based thermal stability shift assay
# Target sequence in this assay (P15090 2-132 limits assumed): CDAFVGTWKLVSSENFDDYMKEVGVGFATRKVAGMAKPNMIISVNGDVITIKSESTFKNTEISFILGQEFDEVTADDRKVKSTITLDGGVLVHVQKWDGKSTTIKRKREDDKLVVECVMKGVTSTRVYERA
# Homo sapiens [3] = species: Homo sapiens; assay: Displacement of 1,8-ANS from His6-tagged FABP4 (unknown origin) R126A mutant expressed in Escherichia coli BL21(DE3) cells at 25 uM by fluorescence assay relative to control
# [4] = biological target: T3, Fatty acid-binding protein, heart (Homo sapiens, UniProt P05413); assay: Displacement of 1,8-ANS from His6-tagged FABP3 (unknown origin) expressed in Escherichia coli BL21(DE3) cells by fluorescence assay; details: read-out: Ki(app)
# Target sequence in this assay (P05413 whole entry): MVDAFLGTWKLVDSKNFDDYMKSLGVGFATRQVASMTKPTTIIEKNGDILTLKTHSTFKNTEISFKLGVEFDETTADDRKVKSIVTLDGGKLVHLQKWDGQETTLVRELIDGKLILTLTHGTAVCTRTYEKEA
# [5] = biological target: T2, Fatty acid-binding protein, adipocyte; assay: Direct binding to His6-tagged FABP4 (unknown origin) expressed in Escherichia coli BL21(DE3) cells by isothermal titration calorimetry
# Target sequence in this assay (P15090 whole entry): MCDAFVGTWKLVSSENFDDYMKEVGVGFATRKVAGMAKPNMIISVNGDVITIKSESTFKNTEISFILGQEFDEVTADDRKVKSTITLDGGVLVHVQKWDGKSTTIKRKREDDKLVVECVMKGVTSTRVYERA
# [6] = biological target: T2, Fatty acid-binding protein, adipocyte; assay: Displacement of 1,8-ANS from His6-tagged FABP4 (unknown origin) expressed in Escherichia coli BL21(DE3) cells by fluorescence assay; details: read-out: Ki(app)
# Target sequence in this assay (P15090 whole entry): as above
# [7] = biological target: Fatty acid-binding protein, brain (Homo sapiens) (UniProt O15540); assay: Displacement of 1,8-ANS from His6-tagged FABP7 (unknown origin) expressed in Escherichia coli BL21(DE3) cells at 25 uM by fluorescence assay relative to control
# [8] = biological target: T1, Fatty acid-binding protein, adipocyte (Mus musculus); assay: Inhibition of FABP4 in mouse RAW264.7 cells assessed as inhibition of LPS-induced TNFalpha production after 24 hrs by ELISA; type: cell-based
# [9] = biological target: T1, Fatty acid-binding protein, adipocyte (Mus musculus); assay: Inhibition of FABP4 in mouse RAW264.7 cells assessed as inhibition of LPS-induced TNFalpha expression after 24 hrs by qPCR method; type: cell-based
# [10] = biological target: Myelin P2 protein (Homo sapiens) (UniProt P02689); assay: Displacement of 1,8-ANS from His6-tagged FABP8 (unknown origin) expressed in Escherichia coli BL21(DE3) cells at 25 uM by fluorescence assay relative to control
# [11] = biological target: T4, Fatty acid-binding protein, liver (Homo sapiens) (UniProt P07148); assay: Displacement of 1,8-ANS from His6-tagged FABP1 (unknown origin) expressed in Escherichia coli BL21(DE3) cells at 25 uM by fluorescence assay relative to control
# T4 sequence (whole entry): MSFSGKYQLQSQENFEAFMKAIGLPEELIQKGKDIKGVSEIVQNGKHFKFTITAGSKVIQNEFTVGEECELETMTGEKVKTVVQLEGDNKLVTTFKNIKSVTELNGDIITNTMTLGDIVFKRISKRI
# Homo sapiens [12] = species: Homo sapiens; assay: Displacement of 1,8-ANS from His6-tagged FABP4 (unknown origin) R106A mutant expressed in Escherichia coli BL21(DE3) cells at 25 uM by fluorescence assay relative to control
# [13] = biological target: Fatty acid-binding protein 5 (Homo sapiens) (UniProt Q01469); assay: Displacement of 1,8-ANS from His6-tagged FABP5 (unknown origin) expressed in Escherichia coli BL21(DE3) cells at 25 uM by fluorescence assay relative to control
# [14] = biological target: T3, Fatty acid-binding protein, heart; details: 25 uM
# Target sequence in this assay (P05413 2-133 limits assumed): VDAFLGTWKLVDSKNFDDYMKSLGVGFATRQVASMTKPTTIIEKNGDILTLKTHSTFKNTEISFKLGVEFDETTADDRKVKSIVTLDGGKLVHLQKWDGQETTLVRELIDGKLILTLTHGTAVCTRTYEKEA
# Description: Displacement of 1,8-ANS from His6-tagged FABP3 (unknown origin) expressed in Escherichia coli BL21(DE3) cells at 25 uM by fluorescence assay relative to control
# [15] = biological target: T3, Fatty acid-binding protein, heart; details: 50 uM
# Target sequence in this assay (P05413 2-133 limits assumed): as above
# Description: Binding affinity to His6-tagged FABP3 (unknown origin) expressed in Escherichia coli BL21(DE3) cells assessed as change in melting temperature at 50 uM after 30 mins by SYPRO orange dye based thermal stability shift assay
# [16] = biological target: T5, Fatty acid-binding protein 9 (Homo sapiens) (UniProt Q0Z7S8); assay: Displacement of 1,8-ANS from His6-tagged FABP9 (unknown origin) expressed in Escherichia coli BL21(DE3) cells at 25 uM by fluorescence assay relative to control
# T5 sequence (whole entry): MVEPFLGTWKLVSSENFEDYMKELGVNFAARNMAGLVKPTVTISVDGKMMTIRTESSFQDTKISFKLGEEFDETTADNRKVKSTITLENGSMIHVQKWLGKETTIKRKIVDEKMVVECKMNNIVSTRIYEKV
# [17] = biological target: T6, Fatty acid-binding protein, intestinal (Homo sapiens) (UniProt P12104); assay: Displacement of 1,8-ANS from His6-tagged FABP2 (unknown origin) expressed in Escherichia coli BL21(DE3) cells at 25 uM by fluorescence assay relative to control
# T6 sequence (whole entry): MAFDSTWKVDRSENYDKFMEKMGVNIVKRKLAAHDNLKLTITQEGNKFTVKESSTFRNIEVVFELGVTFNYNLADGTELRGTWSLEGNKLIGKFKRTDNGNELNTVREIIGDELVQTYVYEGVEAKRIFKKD
# [18] = biological target: T2, Fatty acid-binding protein, adipocyte; assay: Displacement of 1,8-ANS from His6-tagged FABP4 (unknown origin) expressed in Escherichia coli BL21(DE3) cells at 25 uM by fluorescence assay relative to control
# Target sequence in this assay (P15090 2-132 limits assumed): as the sequence (P15090 2-132 limits assumed) above
# Chain of Fatty acid-binding protein 5 (Homo sapiens) (Q01469 whole entry): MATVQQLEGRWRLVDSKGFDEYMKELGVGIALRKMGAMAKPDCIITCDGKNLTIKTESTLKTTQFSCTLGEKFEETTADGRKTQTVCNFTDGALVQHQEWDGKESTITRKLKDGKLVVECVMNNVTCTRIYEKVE
# Chain of Myelin P2 protein (Homo sapiens) (P02689 whole entry, looked up): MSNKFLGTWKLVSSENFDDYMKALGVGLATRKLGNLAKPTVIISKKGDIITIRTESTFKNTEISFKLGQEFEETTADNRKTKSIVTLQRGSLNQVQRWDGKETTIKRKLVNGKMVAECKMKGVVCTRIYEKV
# Chain of Fatty acid-binding protein, brain (Homo sapiens) (O15540 2-132 limits assumed): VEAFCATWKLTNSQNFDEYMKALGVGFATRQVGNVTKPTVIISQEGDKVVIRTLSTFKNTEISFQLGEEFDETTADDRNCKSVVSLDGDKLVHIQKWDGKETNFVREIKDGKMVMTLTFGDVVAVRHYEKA
smiles,measurement,setting,value
O=C(O)C1C2CC=CC2c2cc(Br)cc3c2N1CC1CC=CC31 (stereo not drawn),inhibition,[1],Dose-dependent effect
same,ΔTm,[2],8.5 °C
same,inhibition,Homo sapiens [3],54.7%
same,Ki,[4],1300 nM
same,Kd,[5],2650 nM
same,Ki,[6],290 nM
same,inhibition,[7],58.5%
same,inhibition,[8],Dose-dependent effect
same,inhibition,[9],Dose-dependent effect
same,inhibition,[10],68.4%
same,inhibition,[11],95.5%
same,inhibition,Homo sapiens [12],27%
same,inhibition,[13],77.7%
same,inhibition,[14],63.1%
same,ΔTm,[15],4 °C
same,inhibition,[16],64%
same,inhibition,[17],34.1%
same,inhibition,[18],95.1%
